≈ marks a conversion by molar mass, not a printed value. Numbered stars: 1 amine (or outer) side, 2 acyl side, 3 side chain; on linkers, the order of the positions; unused ones are H or OH. Bridge positions count the residues as written; N and C are the ends. Square brackets hold non-standard residues; d marks the D form. Peptide text beside a SMILES is read from it. * marks the point of attachment. Orn(4R-OH,5R-OH) = O=C([C@H](C[C@@H](O)[C@@H](O)N[*:3])N[*:1])[*:2]; Tetradecanoyl(10R,12S-Me2) = CC[C@H](C)C[C@H](C)CCCCCCCCC(=O)*; hTyr(3S-OH,4S-OH) = N[C@H](C(=O)O)[C@H](O)[C@@H](O)c1ccc(O)cc1; Pro(3S-OH,4S-Me) = C[C@H]1CN[C@H](C(=O)O)[C@H]1O; X1 = CCCCCOc1ccc(-c2cc(-c3ccc(C(=O)*)cc3)no2)cc1; Gln(3R-OH) = NC(=O)C[C@@H](O)[C@H](N)C(=O)O; Pro(3S-OH) = O=C(O)[C@H]1NCC[C@@H]1O; Hyp = O=C(O)[C@@H]1C[C@@H](O)CN1
Experiments:
Candida albicans [1] = test: Antifungal activity against Candida albicans MY1055 infected in DBA/2 mouse assessed as reduction of log CFU in kidney administered 30 mins as ip tid post infection measured after 24 hrs; assay type: functional
Escherichia coli = test: Antibacterial activity against Escherichia coli ATCC 25922 assessed as growth inhibition after 24 hrs by NCCLS broth microdilution method; assay type: functional; conditions: ATCC 25922, 24 h, read-out: MIC100
Staphylococcus aureus = test: Antibacterial activity against methicillin-sensitive Staphylococcus aureus MB2865 assessed as growth inhibition after 24 hrs by NCCLS broth microdilution method; assay type: functional; conditions: MB2865, 24 h, read-out: MIC100
Candida albicans [2] = test: Antifungal activity against Candida albicans NR3 assessed as growth inhibition after 24 hrs by NCCLS broth microdilution method; assay type: functional; conditions: NR3, 24 h; for MIC: read-out: MIC100
Candida albicans [3] = test: Antifungal activity against Candida albicans CAI4-R1 assessed as growth inhibition after 24 hrs by NCCLS broth microdilution method; assay type: functional; conditions: CAI4-R1, 24 h; for MIC: read-out: MIC100
Candida albicans [4] = test: Antifungal activity against wild type Candida albicans CAI4 assessed as growth inhibition after 24 hrs by NCCLS broth microdilution method; assay type: functional; conditions: CAI4, 24 h; for MIC: read-out: MIC100
[5] = tested on: Meyerozyma guilliermondii; test: Antifungal activity against wild type Candida guilliermondii CLY308 assessed as growth inhibition after 24 hrs by NCCLS broth microdilution method; assay type: functional; conditions: CLY308, 24 h; for MIC: read-out: MIC100
Aspergillus fumigatus = test: Antifungal activity against Aspergillus fumigatus MF5668 caspofungin spontaneous resistance mutant assessed as growth inhibition after 24 hrs by NCCLS broth microdilution method; assay type: functional; conditions: MF5668, 24 h; for minimal effective concentration: read-out: MEC
Cryptococcus neoformans = test: Antifungal activity against capsular wild type Cryptococcus neoformans MY2061 assessed as growth inhibition after 24 hrs by NCCLS broth microdilution method; assay type: functional; conditions: MY2061, 24 h, read-out: MIC100
Candida parapsilosis = test: Antifungal activity against wild type Candida parapsilosis ATCC 22019 assessed as growth inhibition after 24 hrs by NCCLS broth microdilution method; assay type: functional; conditions: Lodderomyces parapsilosis, ATCC 22019, 24 h; for MIC: read-out: MIC100
Pichia kudriavzevii = test: Antifungal activity against wild type Candida krusei CLY549 assessed as growth inhibition after 24 hrs by NCCLS broth microdilution method; assay type: functional; conditions: CLY549, 24 h; for MIC: read-out: MIC100
Clavispora lusitaniae = test: Antifungal activity against wild type Candida lusitaniae MY1396 assessed as growth inhibition after 24 hrs by NCCLS broth microdilution method; assay type: functional; conditions: MY1396, 24 h; for MIC: read-out: MIC100
Nakaseomyces glabratus = test: Antifungal activity against wild type Candida glabrata MY1381 assessed as growth inhibition after 24 hrs by NCCLS broth microdilution method; assay type: functional; conditions: MY1381, 24 h; for MIC: read-out: MIC100
Candida albicans [6] = test: Antifungal activity against wild type Candida albicans MY1055 assessed as growth inhibition after 24 hrs by NCCLS broth microdilution method in presence of human serum; assay type: functional; conditions: MY1055, 24 h; for MIC: read-out: MIC100
Candida albicans [7] = test: Antifungal activity against wild type Candida albicans MY1055 assessed as growth inhibition after 24 hrs by NCCLS broth microdilution method; assay type: functional; conditions: MY1055, 24 h; for MIC: read-out: MIC100
Beta-1,3-glucan synthase = target: T1, Beta-1,3-glucan synthase (Candida albicans, UniProt O13383); test: Inhibition of wild type Candida albicans 1,3-beta-D-glucan synthase using UDP[6,3H]-glucose as substrate after 60 mins by liquid scintillation counting analysis
T1 sequence (O13383 whole entry): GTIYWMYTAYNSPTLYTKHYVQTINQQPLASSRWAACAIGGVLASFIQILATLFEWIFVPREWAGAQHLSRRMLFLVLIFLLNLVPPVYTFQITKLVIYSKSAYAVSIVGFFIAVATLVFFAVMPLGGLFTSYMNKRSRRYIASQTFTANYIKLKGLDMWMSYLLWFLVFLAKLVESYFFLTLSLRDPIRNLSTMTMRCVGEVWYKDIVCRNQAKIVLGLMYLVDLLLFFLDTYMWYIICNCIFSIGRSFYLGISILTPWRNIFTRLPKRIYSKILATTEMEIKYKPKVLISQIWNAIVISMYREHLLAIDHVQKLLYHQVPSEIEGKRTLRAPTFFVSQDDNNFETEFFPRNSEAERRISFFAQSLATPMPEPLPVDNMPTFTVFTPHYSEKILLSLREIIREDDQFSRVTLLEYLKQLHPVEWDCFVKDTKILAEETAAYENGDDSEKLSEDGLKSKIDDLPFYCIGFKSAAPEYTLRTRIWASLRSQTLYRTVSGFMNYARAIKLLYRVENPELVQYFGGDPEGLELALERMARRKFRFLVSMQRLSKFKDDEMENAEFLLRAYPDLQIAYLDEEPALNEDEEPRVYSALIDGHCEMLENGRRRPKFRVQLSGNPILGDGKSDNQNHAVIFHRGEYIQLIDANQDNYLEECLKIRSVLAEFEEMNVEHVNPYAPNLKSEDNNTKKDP

Row | SMILES | ED90 (Candida albicans [1]) | ED99 (Candida albicans [1]) | MIC (Escherichia coli) | MIC (Staphylococcus aureus) | MIC (Candida albicans [2]) | MIC80 (Candida albicans [3]) | MIC (Candida albicans [3]) | MIC80 (Candida albicans [4]) | MIC (Candida albicans [4]) | MIC80 [5] | MIC [5] | MIC80 (Aspergillus fumigatus) | minimal effective concentration (Aspergillus fumigatus) | MIC (Cryptococcus neoformans) | MIC80 (Candida parapsilosis) | MIC (Candida parapsilosis) | MIC80 (Pichia kudriavzevii) | MIC (Pichia kudriavzevii) | MIC80 (Clavispora lusitaniae) | MIC (Clavispora lusitaniae) | also measured
1 | CC[C@H](C)C[C@H](C)CCCCCCCCC(=O)N[C@H]1C[C@@H](O)[C@@H](O)NC(=O)[C@@H]2[C@@H](O)CCN2C(=O)[C@H]([C@H](O)CC(N)=O)NC(=O)[C@H]([C@H](O)[C@@H](O)c2ccc(O)cc2)NC(=O)[C@@H]2C[C@@H](O)CN2C(=O)[C@H]([C@@H](C)O)NC1=O ({Tetradecanoyl(10R,12S-Me2)}-[Orn(4R-OH,5R-OH)]T[Hyp][hTyr(3S-OH,4S-OH)][Gln(3R-OH)][Pro(3S-OH)]; lactam 1-C) | 2.71 mg/kg/day | 13 mg/kg/day | > 32 mg/L | > 32 mg/L | > 32 mg/L | 16 mg/L (≈ 15 µM) | 32 mg/L (≈ 30 µM) | < 0.03 mg/L | 0.5 mg/L (≈ 0.469 µM) | 4 mg/L (≈ 3.76 µM) | > 32 mg/L | 4 mg/L (≈ 3.76 µM) | > 32 µg/mL | > 32 mg/L | 8 mg/L (≈ 7.51 µM) | > 32 mg/L | 8 mg/L (≈ 7.51 µM) | 32 mg/L (≈ 30 µM) | 1 mg/L (≈ 0.939 µM) | 4 mg/L (≈ 3.76 µM) | MIC (Nakaseomyces glabratus): 4 mg/L (≈ 3.76 µM); MIC80 (Candida albicans [6]): 16 mg/L; MIC (Candida albicans [6]): 32 mg/L; MIC80 (Candida albicans [7]): 0.125 mg/L (≈ 0.117 µM); MIC (Candida albicans [7]): 0.5 mg/L (≈ 0.469 µM)
2 | CC[C@H](C)C[C@H](C)CCCCCCCCC(=O)N[C@H]1C[C@@H](O)[C@@H](O)NC(=O)[C@@H]2[C@@H](O)[C@@H](C)CN2C(=O)[C@H]([C@H](O)CC(N)=O)NC(=O)[C@H]([C@H](O)[C@@H](O)c2ccc(O)cc2)NC(=O)[C@@H]2C[C@@H](O)CN2C(=O)[C@H]([C@@H](C)O)NC1=O ({Tetradecanoyl(10R,12S-Me2)}-[Orn(4R-OH,5R-OH)]T[Hyp][hTyr(3S-OH,4S-OH)][Gln(3R-OH)][Pro(3S-OH,4S-Me)]; lactam 1-C) | 1.15 mg/kg/day | 6.77 mg/kg/day | > 32 mg/L | > 32 mg/L | > 32 mg/L | 8 mg/L (≈ 7.41 µM) | 16 mg/L (≈ 14.8 µM) | < 0.03 mg/L | 0.5 mg/L (≈ 0.463 µM) | 4 mg/L (≈ 3.71 µM) | 32 mg/L (≈ 29.7 µM) | 4 mg/L (≈ 3.71 µM) | > 32 µg/mL | > 32 mg/L | 8 mg/L (≈ 7.41 µM) | > 32 mg/L | 4 mg/L (≈ 3.71 µM) | 8 mg/L (≈ 7.41 µM) | 1 mg/L (≈ 0.927 µM) | 4 mg/L (≈ 3.71 µM) | IC50 (Beta-1,3-glucan synthase): 0.0176 µM; MIC80 (Candida albicans [2]): 32 mg/L (≈ 29.7 µM); MIC80 (Nakaseomyces glabratus): 2 mg/L (≈ 1.85 µM); MIC (Nakaseomyces glabratus): 4 mg/L (≈ 3.71 µM); MIC80 (Candida albicans [6]): 16 mg/L; MIC (Candida albicans [6]): 32 mg/L; MIC80 (Candida albicans [7]): 0.125 mg/L (≈ 0.116 µM); MIC (Candida albicans [7]): 0.5 mg/L (≈ 0.463 µM)
3 | CCCCCOc1ccc(-c2cc(-c3ccc(C(=O)N[C@H]4C[C@@H](O)[C@@H](O)NC(=O)[C@@H]5[C@@H](O)[C@@H](C)CN5C(=O)[C@H]([C@H](O)CC(N)=O)NC(=O)[C@H]([C@H](O)[C@@H](O)c5ccc(O)cc5)NC(=O)[C@@H]5C[C@@H](O)CN5C(=O)[C@H]([C@@H](C)O)NC4=O)cc3)no2)cc1 (X1-[Orn(4R-OH,5R-OH)]T[Hyp][hTyr(3S-OH,4S-OH)][Gln(3R-OH)][Pro(3S-OH,4S-Me)]; lactam 1-C) | 0.12 mg/kg/day | 0.82 mg/kg/day | > 32 mg/L | > 32 mg/L | 4 mg/L (≈ 3.41 µM) | 0.5 mg/L (≈ 0.426 µM) | 2 mg/L (≈ 1.7 µM) | < 0.03 mg/L | 0.06 mg/L (≈ 0.0511 µM) | 0.5 mg/L (≈ 0.426 µM) | 2 mg/L (≈ 1.7 µM) | < 0.03 mg/L | > 32 µg/mL | > 32 mg/L | 2 mg/L (≈ 1.7 µM) | 32 mg/L (≈ 27.3 µM) | 0.125 mg/L (≈ 0.106 µM) | 1 mg/L (≈ 0.852 µM) | < 0.03 mg/L | 0.125 mg/L (≈ 0.106 µM) | IC50 (Beta-1,3-glucan synthase): 0.035 µM; MIC80 (Candida albicans [2]): 2 mg/L (≈ 1.7 µM); MIC80 (Nakaseomyces glabratus): 0.06 mg/L (≈ 0.0511 µM); MIC (Nakaseomyces glabratus): 0.25 mg/L (≈ 0.213 µM); MIC80 (Candida albicans [6]): 0.25 mg/L; MIC (Candida albicans [6]): 1 mg/L; MIC80 (Candida albicans [7]): < 0.03 mg/L; MIC (Candida albicans [7]): 0.06 mg/L (≈ 0.0511 µM)

— ChEMBL document CHEMBL2385047, “Synthesis and antifungal evaluation of pentyloxyl-diphenylisoxazoloyl pneumocandins and echinocandins” (Bioorg Med Chem Lett, 2013)
